Data: ChEMBL document CHEMBL1135343, “Glutathione-like tripeptides as inhibitors of glutathionylspermidine synthetase. Part 2: substitution of the glycine part” (Bioorg Med Chem Lett, 2002)
Where “and” joins values, the source holds several entries; their conditions need not be identical. Equal entries are not always repeated. Numbered stars: 1 amine (or outer) side, 2 acyl side, 3 side chain; on linkers, the order of the positions; unused ones are H or OH. Square brackets hold non-standard residues; d marks the D form. Peptide text beside a SMILES is read from it. γGlu = O=C(O)[C@H](CCC(=O)[*:2])N[*:1]; Orn = NCCC[C@H](N)C(=O)O; Dab = NCC[C@H](N)C(=O)O; Nva = CCC[C@H](N)C(=O)O; Dap = NC[C@H](N)C(=O)O

Experiments:
[1] = molecular target: T1, Glutathionylspermidine synthase (Crithidia fasciculata) (UniProt P90518); assay: (§1) Tested against glutathionylspermidine synthetase (GspS) in Crithidia fasciculata; parameters: concentration or dose not given beside the values; details: concentration not given here
T1 sequence (whole entry): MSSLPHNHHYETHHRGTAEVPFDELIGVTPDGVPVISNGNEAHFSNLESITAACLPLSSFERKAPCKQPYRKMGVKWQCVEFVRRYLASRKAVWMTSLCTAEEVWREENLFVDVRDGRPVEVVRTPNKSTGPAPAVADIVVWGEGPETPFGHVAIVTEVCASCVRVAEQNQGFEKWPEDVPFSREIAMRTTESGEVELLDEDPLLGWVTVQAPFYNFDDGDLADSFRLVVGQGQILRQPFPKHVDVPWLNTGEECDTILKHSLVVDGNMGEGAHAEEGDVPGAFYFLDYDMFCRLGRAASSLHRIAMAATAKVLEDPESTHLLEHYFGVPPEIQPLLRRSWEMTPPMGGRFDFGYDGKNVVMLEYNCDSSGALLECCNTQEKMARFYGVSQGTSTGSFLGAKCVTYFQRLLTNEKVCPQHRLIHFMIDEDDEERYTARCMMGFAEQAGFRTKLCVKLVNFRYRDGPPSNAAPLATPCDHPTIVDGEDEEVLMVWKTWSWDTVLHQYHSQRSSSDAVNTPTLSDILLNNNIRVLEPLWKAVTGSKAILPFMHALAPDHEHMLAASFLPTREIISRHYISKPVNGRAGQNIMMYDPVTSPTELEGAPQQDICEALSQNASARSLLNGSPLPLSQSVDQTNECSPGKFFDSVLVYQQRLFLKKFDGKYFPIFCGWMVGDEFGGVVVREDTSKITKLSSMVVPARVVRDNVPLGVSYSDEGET

[2] = molecular target: T2, Glutathionylspermidine synthase (Crithidia fasciculata, UniProt P90518); assay: as §1
T2 sequence (P90518 whole entry): T1 sequence (whole entry)

[3] = molecular target: T2, Glutathionylspermidine synthase; assay: Inhibitory constant against glutathionylspermidine synthetase (GspS) in Crithidia fasciculata

inhibition [1] | IC50 [2] | Ki [3] | SMILES
93% | 23 µM | 33 µM and 59 µM | CC(C)C[C@H](NC(=O)CC[C@H](N)C(=O)O)C(=O)N[C@@H](CCCCNCCCN)C(=O)O
94% | 27.9 µM | 32 µM and 86 µM | CC(C)C[C@H](NC(=O)CC[C@H](N)C(=O)O)C(=O)N[C@@H](CCCCNCCCCN)C(=O)O
62% | 157 µM |  | CC(C)C[C@H](NC(=O)CC[C@H](NC(=O)OC(C)(C)C)C(=O)OC(C)(C)C)C(=O)N[C@@H](CCCCNCCCNC(=O)OC(C)(C)C)C(=O)O
59% | 365 µM |  | CC(C)C[C@H](NC(=O)[C@H](CC(C)C)NC(=O)CC[C@H](N)C(=O)O)C(=O)O
95% | 9.4 µM | 6.4 µM and 17 µM | CC(C)C[C@H](NC(=O)CC[C@H](N)C(=O)O)C(=O)N[C@@H](CCCN=C(N)N)C(=O)O
53% |  |  | CCCC[C@H](NC(=O)[C@H](CC(C)C)NC(=O)CC[C@H](N)C(=O)O)C(=O)O
87% | 90 µM |  | CC(C)C[C@H](NC(=O)CC[C@H](N)C(=O)O)C(=O)N[C@@H](C)C(=O)O (γGlu-Leu-Ala-OH)
68% | 142 µM |  | CC(C)C[C@H](NC(=O)CC[C@H](N)C(=O)O)C(=O)N[C@@H](CC(N)=O)C(=O)O (γGlu-Leu-Asn-OH)
69% | 156 µM |  | CC(C)C[C@H](NC(=O)CC[C@H](N)C(=O)O)C(=O)N[C@@H](CC(=O)O)C(=O)O (γGlu-Leu-Asp-OH)
60% | 227 µM |  | CC(C)C[C@H](NC(=O)CC[C@H](N)C(=O)O)C(=O)N[C@@H](CCC(=O)O)C(=O)O (γGlu-Leu-Glu-OH)
0% |  |  | CC(C)C[C@H](NC(=O)CC[C@H](N)C(=O)O)C(=O)NCC(=O)O (γGlu-Leu-Gly-OH)
93% | 18 µM | 27 µM and 48 µM | CC(C)C[C@H](NC(=O)CC[C@H](N)C(=O)O)C(=O)N[C@@H](CCCCN)C(=O)O (γGlu-Leu-Lys-OH)
94% | 11.7 µM | 14 µM and 25 µM | CC(C)C[C@H](NC(=O)CC[C@H](N)C(=O)O)C(=O)N[C@@H](CO)C(=O)O (γGlu-Leu-Ser-OH)
95% | 13.7 µM | 10.4 µM and 24 µM | CC(C)C[C@H](NC(=O)CC[C@H](N)C(=O)O)C(=O)N[C@@H](CCN)C(=O)O (γGlu-Leu-[Dab]-OH)
97% | 9.1 µM | 7.2 µM and 21 µM | CC(C)C[C@H](NC(=O)CC[C@H](N)C(=O)O)C(=O)N[C@@H](CN)C(=O)O (γGlu-Leu-[Dap]-OH)
70% | 145 µM |  | CCC[C@H](NC(=O)[C@H](CC(C)C)NC(=O)CC[C@H](N)C(=O)O)C(=O)O (γGlu-Leu-[Nva]-OH)
95% | 10.3 µM | 10 µM and 39 µM | CC(C)C[C@H](NC(=O)CC[C@H](N)C(=O)O)C(=O)N[C@@H](CCCN)C(=O)O (γGlu-Leu-[Orn]-OH)
